The values below come from patent US4183931A, “2-Ketoalkyl-4(3H)-quinazolinones” (Research Corporation, priority 1977, dated 1980).

Data set [1] in a line: NINCDS Subcutaneous Pentylenetetrazol (Metrazol) Seizure Threshold Test (scMet). Type of data set: in vivo, mice. To be noted: Mus musculus, sc, read-out: scMet: dosage level that elicited protection. On the procedure:
1. Neurological Activity Tests. […] Compounds were evaluated for anticonvulsant activity in two seizure models, the maximal electroshock seizure (MES) test and the subcutaneous pentylenetetrazol (Metrazol) seizure threshold (scMet) test.
Subcutaneous Pentylenetetrazol (Metrazol) Seizure Threshold Test (scMet) produces threshold (clonic) seizures. Pentylenetetrazol is administered subcutaneously as a threshold 0.5% solution (in 0.9% sodium chloride) in a loose fold of skin on the back of the neck in a dose of 85 mg/kg. […] Metrazol is given 10 minutes before the beginning of the test to allow for the delay in onset of Metrazol action. The animal is observed for 30 minutes. Failure to observe even a threshold seizure (a single episode of clonic spasms at least 5 seconds in duration) is defined as protection and indicates anticonvulsant activity in the test compound. These two methods of seizure provocation reliably elicit well-characterizied seizure phenomena.
The ability of a compound to prevent maximal electroshock seizures is believed to correlate with its ability to prevent the spread of seizure discharge through neural tissue. Activity against maximal electroshock seizures is thought to indicate potential efficacy in the treatment of major motor (grand mal) seizures. […] Selective action in the test is believed to indicate potential efficacy against absence (petit mal) seizures.
As described earlier, the MES, scMet and Rotorod tests were performed one-half hour and four hours after administration of each compound.
In the Secondary Evaluation, median effective doses (ED50) are determined in the MES, scMet and Rotorod assays using the procedures defined in Pharmacology, 95, 99-113 (1949).
Separate groups of animals are used for each time period. The times of peak toxic and anticonvulsant effect are taken from the resulting graph of percent of animals responding vs. time, and the determinations of median effective doses are performed at those times.

Data set [2] is described as follows: NPP lethality (estimated LD50). To be noted: mouse, in vivo, ip. As for the experimental part: (§1) The procedures for the determination of a neuropharmacological profile involved white male mice of the Carworth Farm Strain CF-1 weighing 18 to 22 grams. […] Intraperitoneal injections were administered in logarithmic progression and sequentially. The dose levels employed routinely were 10, 30, 100 and 300 mg/kg, using four male mice at each dose level. Since this test was conducted in a sequential manner, the first does administered was at 300 mg/kg. […] Approximately thirty-eight signs and symptoms of pharmacological activity can be identified.
(§2) The animals were observed continously for one hour and, if no signs of pharmacological or toxicological activity were present at the end of the first hour, they were intermittently checked for activity every fifteen minutes thereafter for two consecutive hours. […] The observation period began immediately following the injection and the animals were then continuously observed for three hours and intermittently checked thereafter for forty-eight hours. The animals were observed and signs and symptoms of pharmacological activity were recorded continuously until no further symptoms developed and until the symptoms that appeared were no longer present. […] In such instances, the animals were observed beyond this period until they returned to normal. Routinely, the number of animals alive at the end of the forty-eight hour observation period was recorded and the LD50 estimated.
(§3) Scores for behavioral symptoms, including depression, righting reflex and ataxia, are the actual numbers reported. Protection against MES is reported as a percentage. Since four animals were involved in this test, the findings are 0% for none protected, 25% for one out of four, etc. […] In order to maintain reasonable uniformity in the reporting of results, each entry corresponds to a dosage level of 100 mg/kg. Any variations from that dosage are indicated.

Data set [3] can be described thus: Neuropharmacological Profile (NPP): general CNS observational screen (depression, righting reflex, ataxia). To be noted: i.p., mice, score 0-8; for Depression: at 300 mg/kg. As for the experimental part: Representative compounds according to the present invention were tested for central nervous system activity by Pharmakon Laboratories of Scranton, Pennsylvania. The battery of general observational procedures used is referred to herein as a Neuropharmacological Profile (NPP). Additionally, representative compounds were tested in the Anticonvulsant Screening Project of the National Institutes of Neurological and Communicative Disorders and Stroke (NINCDS) at the University of Utah under the direction of Dr. Ewart A. Swinyard.
as §1, §2
The animals are free to move about for evaluation of spatial orientation, alertness and spontaneous motor activity.
(§4) Since this is a general CNS screening procedure, only peak effects were recorded. Certain measures of behavior and neurological deficit were scored in terms of intensity of effect, while most others were determined on an all or none basis. Thus, in scoring measures which were normally present, e.g., spontaneous activity and skin color, an increase in score from 4 to 8 was used to denote stimulation or enhancement of skin color, whereas a decrease in score from 4 to 0 indicated depression or cyanosis. For scoring measures normally absent, e.g., depression, righting reflex and ataxia, activity was reflected as an increase in score from 0 to 8. The 0 to 8 scale was rounded off so that the actual ratings are only 0, 2, 4, 6 and 8. The compounds were also evaluated for anticonvulsant activity by using the maximal electroshock seizure (MES) test. In the MES study, four mice were dosed intraperitoneally at 100 mg/kg and challenged thirty minutes later with 50 mA, 0.2 second duration of electroshock. A protection ratio (number of mice protected from tonic extension .div. number of mice tested) was then established.
At the termination of the test, the results were recorded and tabulated.
as §3

The nature of data set [4]: NPP maximal electroshock seizure (MES) protection. The data set is classed as in vivo, white male mice of the Carworth Farm Strain CF-1. To be noted: Mus musculus, ip; for responders at 100 mg/kg: 0.5 h, at 100 mg/kg i.p., four mice, 30 min after dosing. On the procedure: as §1, §4, §3
For orientation: Protection in the maximal electroshock model is a classic sign of anticonvulsant action.

[5] abbreviates: after 4 hr (value in parentheses).
Setting [6] is: at 30 mg/kg (value in parentheses).

Where two headings read alike, the source gives them in different places.

In the case of `Cc1ccccc1-n1c(CCc2ccccc2)nc2ccccc2c1=O` [CH2 C6 H5, reference compound], the minimal effective dose in data set [1] (after 0.5 hr) and in data set [1] (setting [5]) was 300 mg/kg throughout.
The LD50 is the dose expected to kill half of the subjects tested. As for `Cc1ccccc1-n1c(CC(=O)C(F)(F)F)nc2ccccc2c1=O` [IIIa, 2-(3,3,3-Trifluoroacetonyl)-3-o-tolyl-4(3H)-quinazoline], the LD50 at 48 h in data set [2] was over 562 mg/kg. The “CNS Depression” value in data set [3] (setting [6]) turned out to be 4. In data set [3] (at 100 mg/kg), the Ataxia stood at 2. Besides, the responders at 100 mg/kg in data set [4] was found to be 50%.
On to `Cc1ccccc1-n1c(CC(=O)c2ccccn2)nc2ccccc2c1=O` [IIIb, 2-[2-Oxo-2-(2-pyridyl)ethyl]-3-o-tolyl-4-(3H)-quinazolinone], for which, in data set [2], the LD50 at 48 h was over 562 mg/kg. Besides, in data set [1] (after 0.5 hr), the minimal effective dose came out at 300 mg/kg. The “CNS Depression” value in data set [3] (at 100 mg/kg) is given as 2. In addition, in data set [4], the responders at 100 mg/kg worked out at 0%.
As for `Cc1ccccc1-n1c(CC(=O)c2cccnc2)nc2ccccc2c1=O` [IIIc, 2-[2-Oxo-2-(3-pyridyl)ethyl]-3-o-tolyl-4(3H)-quinazolinone], in data set [2], the median lethal dose (LD50) at 48 h was 562 mg/kg. The minimal effective dose in data set [1] (setting [5]) was 300 mg/kg. Also, in data set [3] (setting [6]), the “CNS Depression” value was found to be 4. Besides, in data set [3] (at 100 mg/kg), the Ataxia stood at 8 and the “CNS Depression” value came to 6. The responders at 100 mg/kg in data set [4] was 100%.
Consider `Cc1ccccc1-n1c(CC(=O)C=Cc2ccccc2)nc2ccccc2c1=O` [IIIf, 2-(2-Oxo-4-phenylbut-3-enyl)-3-o-tolyl-4(3H)-quinazolinone], for which the median lethal dose (LD50) at 48 h in data set [2] is over 562 mg/kg. In addition, the “CNS Depression” value in data set [3] (setting [6]) is given as 2; in data set [3] (at 100 mg/kg), 4. Also, the responders at 100 mg/kg in data set [4] was determined as 25%.
Turning to `Cc1ccccc1-n1c(CC(=O)c2ccccc2)nc2ccccc2c1=O` [IIIg, 2-(2-Oxo-2-phenylethyl)-3-o-tolyl-4(3H)-quinazolinone], the LD50 at 48 h in data set [2] was over 562 mg/kg. In addition, the “CNS Depression” value in data set [3] (setting [6]) and in data set [3] (at 100 mg/kg) was 4 in each case. Besides, the responders at 100 mg/kg in data set [4] stood at 0%.
With `Cc1ccccc1-n1c(CC(=O)c2ccc(Cl)cc2)nc2ccccc2c1=O` [IIIh, 2-[2-Oxo-2-(4-chlorophenyl)ethyl]-3-o-tolyl-4(3H)-quinazolinone], the LD50 at 48 h in data set [2] was 316 mg/kg. Further, the “CNS Depression” value in data set [3] (at 100 mg/kg) was found to be 0. The Depression in data set [3] is given as 4. In addition, the responders at 100 mg/kg in data set [4] was found to be 0%.
Consider `COc1ccc(C(=O)Cc2nc3ccccc3c(=O)n2-c2ccccc2C)cc1` [IIIi, 2-[2-Oxo-2-(4-methoxyphenyl)ethyl]-3-o-tolyl-4(3H)-quinazolinone], for which, in data set [2], the 50% lethal dose (LD50) at 48 h is over 562 mg/kg. Further, in data set [3] (at 100 mg/kg), the “CNS Depression” value was 2. The same molecule displayed a Depression in data set [3] of 4. Besides, the responders at 100 mg/kg in data set [4] stood at 0%.
The like results for `COc1cc(C(=O)Cc2nc3ccccc3c(=O)n2-c2ccccc2C)cc(OC)c1OC` [IIIj, 2-[2-Oxo-2-(3,4,5-trimethoxyphenyl)ethyl]-3-o-tolyl-4(3H)-quinazolinone] were, in that order, over 562 mg/kg, 2, 4 and 0%.
As to `CCOC(=O)C(=O)Cc1nc2ccccc2c(=O)n1-c1ccccc1C` [IIIm, 2-Ethoxallylmethyl-3-o-tolyl-4(3H)-quinazolinone], in data set [2], the LD50 at 48 h is over 562 mg/kg. Further, the “CNS Depression” value in data set [3] (at 100 mg/kg) amounted to 4. In data set [4], this molecule registered a responders at 100 mg/kg of 0%.
Turning to `O=C(Cc1nc2ccccc2c(=O)n1-c1ccccc1Cl)c1ccccn1` [IVb, 2-[2-Oxo-2-(2-pyridyl)ethyl]-3-o-chlorophenyl-4(3H)-quinazolinone], the LD50 at 48 h in data set [2] was 562 mg/kg. In data set [3] (at 100 mg/kg), the “CNS Depression” value was found to be 0. Besides, the Depression in data set [3] is listed as 2. In data set [4], this molecule gave a responders at 100 mg/kg of 0%.
For the molecule `O=C(Cc1nc2ccccc2c(=O)n1-c1ccccc1)C(F)(F)F` [IVe, 2-(3,3,3-Trifluoroacetonyl)-3-phenyl-4(3H)-quinazolinone], the LD50 at 48 h in data set [2] was 562 mg/kg. The “CNS Depression” value in data set [3] (at 100 mg/kg) was determined as 2. The responders at 100 mg/kg in data set [4] was determined as 0%.
Regarding `O=C(Cc1nc2ccccc2c(=O)n1-c1ccccc1)c1ccncc1` [IVh, 2-[2-Oxo-2-(4-pyridyl)ethyl]-3-phenyl-4(3H)-quinazolinone], the minimal effective dose in data set [1] (after 0.5 hr) stood at 100 mg/kg.
Take `Cc1ccc(-n2c(CC(=O)C(F)(F)F)nc3ccccc3c2=O)cc1` [IVi, 2-(3,3,3-Trifluoroacetonyl)-3-p-tolyl-4(3H)-quinazolinone]: in data set [2], the LD50 at 48 h was 562 mg/kg. In data set [3] (at 100 mg/kg), the Ataxia turned out to be 2 and the “CNS Depression” value was 4. In data set [4], this molecule displayed a responders at 100 mg/kg of 100%.
Consider `Cc1ccc(-n2c(CC(=O)c3cccnc3)nc3ccccc3c2=O)cc1` [IVk, 2-[2-Oxo-2-(3-pyridyl)ethyl]-3-p-tolyl-4(3H)-quinazolinone], for which, in data set [2], the 50% lethal dose (LD50) at 48 h is 562 mg/kg. In data set [3] (at 100 mg/kg), the “CNS Depression” value came out at 4. The molecule further had a responders at 100 mg/kg in data set [4] of 0%.
On to `Cc1ccc(-n2c(CC(=O)c3ccncc3)nc3ccccc3c2=O)cc1` [IVl, 2-[2-Oxo-2-(4 pyridyl)ethyl]-3-p-tolyl-4(3H)-quinazolinone], for which the minimal effective dose in data set [1] (setting [5]) turned out to be 300 mg/kg.
As for `Cn1c(CC(=O)c2ccccc2)nc2ccccc2c1=O` [IVr, 2-(2-Oxo-2-phenylethyl)-3-methyl-4(3H)-quinazolinone], the minimal effective dose in data set [1] (setting [5]) was 300 mg/kg.
For `Cn1c(CC(=O)c2cccnc2)nc2ccccc2c1=O` [IVs, 2-[2-Oxo-2-(3-pyridyl)ethyl]-3-methyl-4(3H)-quinazolindone], the median lethal dose (LD50) at 48 h in data set [2] is 422 mg/kg. In addition, the “CNS Depression” value in data set [3] (at 100 mg/kg) is reported as 4. The molecule further returned a responders at 100 mg/kg in data set [4] of 0%.
Consider `Cc1ccc(-n2c(C)nc3ccccc3c2=O)cc1` [p-tolyl H, 2-methyl-3-p-tolyl-4(3H)-quinazolinone, reference compound], for which the LD50 at 48 h in data set [2] is over 562 mg/kg. Further, in data set [3] (setting [6]), the “CNS Depression” value was found to be 4. In data set [3] (at 100 mg/kg), the Ataxia was found to be 8 and the “CNS Depression” value is recorded as 8. This molecule registered a responders at 100 mg/kg in data set [4] of 100%.
For `Cc1nc2ccccc2c(=O)n1-c1ccccc1` [phenyl H, 2-methyl-3-phenyl-4(3H)-quinazolinone, reference compound], the 50% lethal dose (LD50) at 48 h in data set [2] is 562 mg/kg. Besides, the “CNS Depression” value in data set [3] (setting [6]) was determined as 4. In data set [3] (at 100 mg/kg), the Ataxia was found to be 8, the “CNS Depression” value amounted to 8 and the Righting reflex is 8. The same molecule returned a responders at 30 mg/kg in data set [4] (conducted at 30 mg/kg i.p.) of 0%.
